These results are taken from patent publication US20260258035A1, “FIVE-MEMBERED AND SIX-MEMBERED NITROGEN-CONTAINING COMPOUND, AND INTERMEDIATE, PREPARATION METHOD AND USE THEREOF” (HANGZHOU SYNRX THERAPEUTICS BIOMEDICAL TECHNOLOGY CO., LTD., priority 2022, published 2026).

One assay deals with PARG (Homo sapiens, UniProt Q86W56). Briefly: Biochemical assay (PARG, TFMU-ADPr substrate).
The test system of assay [1] is Human breast squamous carcinoma cells HCC1806. Kind of assay: Cell function assay (In-Cell Western, PAR/pADPr after MMS). The format is cell-based. On the procedure:
2. Cell Function Assay (In-Cell Western)
• 1) Human breast squamous carcinoma cells HCC1806 (ATCC) were seeded to the 384-well plate (Corning, #3764) at 20,000 cells/well, incubated for 24 h in a CO2 (5%) incubator at 37° C. to allow for complete adherence of the cells; • 2) 120 nL compounds or DMSO were added to the 384-well plate by Echo 550 (LABCYTE, #550) (final concentrations of compounds: 30000 nM, 10000 nM, 3000 nM, 1000 nM, 300 nM, 100 nM, 30 nM, 10 nM, 3 nM, 1 nM, 0 nM), and then the cells were incubated for 1 h in a CO2 (5%) incubator at 37° C.; • 3) 40 nL MMS (methyl mesylate, Sigma, #129925)(final concentration: 0.5 mM) was added to the plate by Echo 550, and the cells were treated for 1 h in a CO2 (5%) incubator at 37° C.

The test system of a further assay is HCC1806. Briefly: Cell viability assay (CellTiter-Glo). Type of assay: cell-based, Human. The conditions noted are these: Homo sapiens, HCC1806, 168 h, HCC1806, 7 days, CellTiter-Glo; read-out: IC50 (nM) in cell viability assay.
[2] abbreviates: 4 nM PARG, 66.2 uM TFMU-ADPr, 3 min at room temperature.
Setting [3] is: HCC1806, In-Cell Western, MMS treatment, read-out: IC50 (nM) in cell function assay.
Where [4] appears, read: HCC1806, compound 1 h then 0.5 mM MMS 1 h, PAR/pADPr antibody, In-Cell Western, read-out: IC50 (nM) in cell function assay.

SMILES strings stand for the structures. Where two headings read alike, the source gives them in different places.

Chain of PARG (Q86W56 whole entry): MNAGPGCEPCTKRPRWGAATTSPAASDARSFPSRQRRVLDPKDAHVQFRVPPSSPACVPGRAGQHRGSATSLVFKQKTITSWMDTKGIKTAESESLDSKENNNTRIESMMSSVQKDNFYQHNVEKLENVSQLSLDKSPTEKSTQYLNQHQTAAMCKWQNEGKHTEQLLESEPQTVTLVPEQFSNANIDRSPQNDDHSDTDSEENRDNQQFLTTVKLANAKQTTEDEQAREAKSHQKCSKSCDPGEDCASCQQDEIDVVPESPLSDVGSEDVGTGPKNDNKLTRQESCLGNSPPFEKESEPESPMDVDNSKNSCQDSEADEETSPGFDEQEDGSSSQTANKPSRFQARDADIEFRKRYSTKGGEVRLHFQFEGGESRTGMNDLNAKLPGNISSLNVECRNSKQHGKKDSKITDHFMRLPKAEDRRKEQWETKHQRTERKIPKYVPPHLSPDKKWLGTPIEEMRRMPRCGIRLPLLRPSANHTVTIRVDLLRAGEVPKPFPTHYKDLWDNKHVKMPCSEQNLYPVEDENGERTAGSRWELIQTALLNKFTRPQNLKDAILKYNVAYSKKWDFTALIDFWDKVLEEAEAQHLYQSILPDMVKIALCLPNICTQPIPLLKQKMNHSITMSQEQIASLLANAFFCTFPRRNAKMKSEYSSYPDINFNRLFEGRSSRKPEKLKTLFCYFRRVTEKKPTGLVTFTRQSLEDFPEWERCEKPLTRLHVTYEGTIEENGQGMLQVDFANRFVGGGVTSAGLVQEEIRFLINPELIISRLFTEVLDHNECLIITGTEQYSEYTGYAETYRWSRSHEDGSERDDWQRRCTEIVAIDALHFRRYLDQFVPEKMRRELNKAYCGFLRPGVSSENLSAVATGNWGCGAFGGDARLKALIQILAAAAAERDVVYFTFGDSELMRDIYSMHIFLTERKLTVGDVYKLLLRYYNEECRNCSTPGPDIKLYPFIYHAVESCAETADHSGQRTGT

For the compound `C[C@@H]1CN(c2cc(S(=O)(=O)NC3(C#N)CC3)cn3c(-c4nnc(C(F)F)s4)ncc23)CCN1C(=O)C1(F)CC1` [Example 77, (R)-N-(1-cyanocyclopropyl)-3-(5-(difluoromethyl)-1,3,4-thiadiazol-2-yl)-8-(4-(1-fluorocyclopropane-1-carbonyl)-3-methylpiperazin-1-yl)imidazo[1,5-a]pyridine-6-sulfonamide], the half-inhibitory concentration (IC50) at PARG (setting [2]) is less than 100 nM; on PARG (PARG, TFMU-ADPr substrate), 24 nM; in assay [1] (setting [3]) it was 14.8 nM; in assay [1] (setting [4]), less than 100 nM.
For `C[C@@H]1CN(c2cc(S(=O)(=O)NC3(C)COC3)cn3c(-c4nnc(C(F)F)s4)ncc23)CCN1C(=O)C1(C)CC1` [Example 88, (R)-3-(5-(difluoromethyl)-1,3,4-thiadiazol-2-yl)-8-(3-methyl-4-(1-methylcyclopropane-1-carbonyl)piperazin-1-yl)-N-(3-methyloxetan-3-yl)imidazo[1,5-a]pyridine-6-sulfonamide], the IC50 against PARG (setting [2]) is less than 100 nM; against PARG (PARG, TFMU-ADPr substrate), 8.69 nM; in assay [1] (setting [3]) it was 6.77 nM; in assay [1] (setting [4]) it was less than 100 nM.
Consider `C#CC1(NS(=O)(=O)c2cc(N3CCN(C(=O)C(C)C)CC3)c3nnc(-c4nnc(C(F)F)s4)n3c2)COC1` [Example 101, 3-(5-(difluoromethyl)-1,3,4-thiadiazol-2-yl)-N-(3-ethynyloxetan-3-yl)-8-(4-isobutyrylpiperazin-1-yl)-[1,2,4]triazolo[4,3-a]pyridine-6-sulfonamide], for which the IC50 at PARG (setting [2]) was less than 100 nM; against PARG (PARG, TFMU-ADPr substrate), 8.15 nM; in assay [1] (setting [3]), 1540 nM; in assay [1] (setting [4]), more than 1000 nM.
`CC(C)C(=O)N1CCN(c2cc(S(=O)(=O)NC3(C#N)CC3)cn3c(-c4nnc(C(F)F)s4)ncc23)C[C@@H]1C` [Example 85, (S)-N-(1-cyanocyclopropyl)-3-(5-(difluoromethyl)-1,3,4-thiadiazol-2-yl)-8-(4-isobutyryl-3-methylpiperazin-1-yl)imidazo[1,5-a]pyridine-6-sulfonamide]: the IC50 is less than 100 nM against PARG (setting [2]); 15.2 nM on PARG (PARG, TFMU-ADPr substrate); 13.7 nM in assay [1] (setting [3]); less than 100 nM in assay [1] (setting [4]).
As for `N#CC1(NS(=O)(=O)c2cc(N3CCC(O)CC3)c3cnc(-c4nnc(C(F)F)s4)n3c2)CC1` [Example 68, N-(1-cyanocyclopropyl)-3-(5-(difluoromethyl)-1,3,4-thiadiazol-2-yl)-8-(4-hydroxypiperidin-1-yl)imidazo[1,5-a]pyridine-6-sulfonamide], the IC50 at PARG (setting [2]) is less than 100 nM; against PARG (PARG, TFMU-ADPr substrate) it was 25.1 nM; in assay [1] (setting [3]), 34.7 nM; in assay [1] (setting [4]), less than 100 nM.
In the case of `CN1CC2(CCN(c3cc(S(=O)(=O)NC4(CF)CC4)cn4c(-c5nnc(C(F)F)s5)nnc34)CC2)CC1=O` [Example 112, 3-(5-(difluoromethyl)-1,3,4-thiadiazol-2-yl)-N-(1-(fluoromethyl)cyclopropyl)-8-(2-methyl-3-oxo-2,8-diazaspiro[4.5]decan-8-yl)-[1,2,4]triazolo[4,3-a]pyridine-6-sulfonamide], the IC50 at PARG (setting [2]) is less than 100 nM; at PARG (PARG, TFMU-ADPr substrate), 3.67 nM; in assay [1] (setting [3]), 36.3 nM; in assay [1] (setting [4]), less than 100 nM.
Regarding `CC(C)(F)C(=O)N1CCN(c2cc(S(=O)(=O)NC3(C#N)CC3)cn3c(-c4nnc(C(F)F)s4)ncc23)CC1` [Example 64, N-(1-cyanocyclopropyl)-3-(5-(difluoromethyl)-1,3,4-thiadiazol-2-yl)-8-(4-(2-fluoro-2-methylpropanoyl)piperazin-1-yl)imidazo[1,5-a]pyridine-6-sulfonamide], the 50% inhibitory concentration (IC50) at PARG (setting [2]) is less than 100 nM; against PARG (PARG, TFMU-ADPr substrate), 3.44 nM; in assay [1] (setting [3]) it was 6.92 nM; in assay [1] (setting [4]), less than 100 nM.
For the compound `CC(C)C(=O)N1CCN(c2cc(S(=O)(=O)NC3(CF)CC3)cn3c(-c4nnc(C(F)F)s4)ncc23)CC1` [Example 31, 3-(5-(difluoromethyl)-1,3,4-thiadiazol-2-yl)-N-(1-(fluoromethyl)cyclopropyl)-8-(4-isobutyrylpiperazin-1-yl)imidazo[1,5-a]pyridine-6-sulfonamide], the half-inhibitory concentration (IC50) was less than 100 nM on PARG (setting [2]); 0.84 nM on PARG (PARG, TFMU-ADPr substrate); 4.7 nM in assay [1] (setting [3]); less than 100 nM in assay [1] (setting [4]).
Turning to `N#CC1(NS(=O)(=O)c2cc(N3CCC(F)(F)CC3)c3cnc(-c4nnc(C(F)F)s4)n3c2)CC1` [Example 40, N-(1-cyanocyclopropyl)-3-(5-(difluoromethyl)-1,3,4-thiadiazol-2-yl)-8-(4,4-difluoropiperidin-1-yl)imidazo[1,5-a]pyridine-6-sulfonamide], the half-inhibitory concentration (IC50) was less than 100 nM against PARG (setting [2]); 8.37 nM on PARG (PARG, TFMU-ADPr substrate); 309 nM in assay [1] (setting [3]); 100 to 500 nM in assay [1] (setting [4]).
For `CC(C)C(=O)N1CCN(c2cc(S(=O)(=O)NC3(C)COC3)cn3c(-c4nnc(C(F)F)s4)nnc23)CC1` [Example 103, 3-(5-(difluoromethyl)-1,3,4-thiadiazol-2-yl)-8-(4-isobutyrylpiperazin-1-yl)-N-(3-methyloxetan-3-yl)-[1,2,4]triazolo[4,3-a]pyridine-6-sulfonamide], in that order: less than 100 nM, 1.5 nM, 33.6 nM and less than 100 nM.
For `CC(C)C(=O)N1CCN(c2cc(S(=O)(=O)NC3(C(F)F)CC3)cn3c(-c4nnc(C(F)F)s4)ncc23)CC1` [Example 33, 3-(5-(difluoromethyl)-1,3,4-thiadiazol-2-yl)-N-(1-(difluoromethyl)cyclopropyl)-8-(4-isobutyrylpiperazin-1-yl)imidazo[1,5-a]pyridine-6-sulfonamide], in that order: less than 100 nM, 6.52 nM, 155 nM and 100 to 500 nM.
The corresponding values for `[2H]c1nc(-c2nnc(C(F)F)s2)n2cc(S(=O)(=O)NC3(CF)COC3)c(F)c(N3CCN(C(=O)C(C)C)CC3)c12` [Example 154, 3-(5-(difluoromethyl)-1,3,4-thiadiazol-2-yl)-7-fluoro-N-(3-(fluoromethyl)oxetan-3-yl)-8-(4-isobutyrylpiperazin-1-yl)imidazo[1,5-a]pyridine-6-sulfonamide-1-d] are less than 100 nM, 8.22 nM, 9.94 nM and less than 100 nM.
As for `CC(C)C(=O)N1CCN(c2cc(S(=O)(=O)NC3(CF)CC3)cn3c(-c4nnc(C(F)F)s4)cnc23)CC1` [Example 14, 3-(5-(difluoromethyl)-1,3,4-thiadiazol-2-yl)-N-(1-(fluoromethyl)cyclopropyl)-8-(4-isobutyrylpiperazin-1-yl)imidazo[1,2-a]pyridine-6-sulfonamide], the concentration for half-maximal inhibition (IC50) against PARG (setting [2]) is less than 100 nM; against PARG (PARG, TFMU-ADPr substrate), 0.76 nM; in assay [1] (setting [3]) it was 2.01 nM; in assay [1] (setting [4]), less than 100 nM.
`C[C@H]1CN(c2cc(S(=O)(=O)NC3(C#N)CC3)cn3c(-c4nnc(C(F)F)s4)ncc23)CCN1C(=O)C1(C)CC1` [Example 86, (S)-N-(1-cyanocyclopropyl)-3-(5-(difluoromethyl)-1,3,4-thiadiazol-2-yl)-8-(3-methyl-4-(1-methylcyclopropane-1-carbonyl)piperazin-1-yl)imidazo[1,5-a]pyridine-6-sulfonamide]: the concentration for half-maximal inhibition (IC50) is less than 100 nM at PARG (setting [2]); 16.6 nM at PARG (PARG, TFMU-ADPr substrate); 11.4 nM in assay [1] (setting [3]); less than 100 nM in assay [1] (setting [4]).
With `CC(C)C(=O)N1CCN(c2cc(S(=O)(=O)NC3(C#N)CC3)cc3c(-c4nnc(C(F)F)s4)cnn23)CC1` [Example 27, N-(1-cyanocyclopropyl)-3-(5-(difluoromethyl)-1,3,4-thiadiazol-2-yl)-7-(4-isobutyrylpiperazin-1-yl)pyrazolo[1,5-a]pyridine-5-sulfonamide], the IC50 against PARG (setting [2]) was less than 100 nM; on PARG (PARG, TFMU-ADPr substrate), 4.98 nM; in assay [1] (HCC1806, 1 h, read-out: IC50 (nM) in cell function assay), 100 to 500 nM; in assay [1] (HCC1806, read-out: IC50 (nM) in cell function assay) it was 76.3 nM.
For the compound `N#CC1(NS(=O)(=O)c2cc(N3CCN(C(=O)[C@@H]4CCCN4)CC3)c3cnc(-c4nnc(C(F)(F)F)s4)n3c2)CC1` [Example 270, (S)-N-(1-cyanocyclopropyl)-8-(4-prolylpiperazin-1-yl)-3-(5-(trifluoromethyl)-1,3,4-thiadiazol-2-yl)imidazo[1,5-a]pyridine-6-sulfonamide], the IC50 at PARG (PARG, TFMU-ADPr substrate) was 91.2 nM; in the assay with HCC1806 it was 35900 nM.
As for `O=C(C1COC1)N1CCN(c2cc(S(=O)(=O)NC3CC3)cn3c(-c4nnc(C(F)(F)F)s4)ncc23)CC1` [Example 217, N-cyclopropyl-8-(4-(oxetane-3-carbonyl)piperazin-1-yl)-3-(5-(trifluoromethyl)-1,3,4-thiadiazol-2-yl)imidazo[1,5-a]pyridine-6-sulfonamide], the IC50 against PARG (PARG, TFMU-ADPr substrate) is 66.1 nM; in the assay on HCC1806, 3070 nM.

For orientation: IC50 means the concentration needed to halve the response being measured.
